# Reference: patent US20230270755A1, “COMBINATION OF MEDICATIONS IN A PARENTERAL DOSAGE FORM FOR LONG-TERM ANAESTHESIA” (PHARMAFINA ILAC SATIS VE PAZARLAMA ANONIM SIRKETI, priority 2020, published 2023)
# Columns and labels:
# [1] = Ropivacaine pharmacokinetics and duration of effect (literature review); format: in vivo; conditions: single dose; additional doses required for longer action
# Experimental: Ropivacaine is preferably used as the hydrochloride salt and S-enantiomer thereof for acute pain management and surgical anesthesia. […] Therefore, ropivacaine loses its sensible effect within about 4 hours and additional doses are required for a longer action.
# [2] = administered intravenously, cited from earlier work
structure (smiles),measurement,setting,value
CCCN1CCCC[C@H]1C(=O)Nc1c(C)cccc1C [Ropivacaine],time within which sensible effect is lost,[1],≤ 4 h
same,mean half-life of the initial phase,[2],14 min
same,mean absorption t1/2 of the slower phase,[2]; slower phase,approximately 4.2 hours
